{"source": "patent US8048910B2", "about": "“Combination of R,R-glycopyrrolate, rolipram, and budesonide for the treatment of inflammatory diseases” (Meda Pharma GmbH & Co. KG, priority 2005, dated 2011)", "key": {"M3 muscarinic receptors": {"biological_target": "M3 muscarinic receptors (Homo sapiens, UniProt P20309)", "sequence (P20309 whole entry)": "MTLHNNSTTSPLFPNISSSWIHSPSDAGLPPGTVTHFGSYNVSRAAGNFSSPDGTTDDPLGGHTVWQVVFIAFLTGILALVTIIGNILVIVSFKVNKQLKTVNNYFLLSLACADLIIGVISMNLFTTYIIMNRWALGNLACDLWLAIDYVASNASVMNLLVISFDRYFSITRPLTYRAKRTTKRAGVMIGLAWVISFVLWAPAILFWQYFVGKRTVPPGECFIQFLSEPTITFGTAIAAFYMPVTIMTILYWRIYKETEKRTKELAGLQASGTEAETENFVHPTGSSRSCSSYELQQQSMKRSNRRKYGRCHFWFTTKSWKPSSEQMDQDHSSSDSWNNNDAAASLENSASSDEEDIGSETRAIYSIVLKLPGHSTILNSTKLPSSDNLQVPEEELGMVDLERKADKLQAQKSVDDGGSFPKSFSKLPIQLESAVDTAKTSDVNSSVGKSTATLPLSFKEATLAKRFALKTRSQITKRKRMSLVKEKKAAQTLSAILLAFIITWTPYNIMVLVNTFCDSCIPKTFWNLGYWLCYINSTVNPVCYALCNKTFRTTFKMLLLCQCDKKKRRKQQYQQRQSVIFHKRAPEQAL", "settings": "kinetics studies; cited from earlier work"}, "M1-M3 receptors": {"tested_on": "M1-M3 receptors", "settings": "cited from earlier work"}, "[1]": {"settings": "dog, in vivo, 15 mg/kg; cited from earlier work"}, "[2]": {"tested_on": "allergen-induced airway eosinophilia", "settings": "Brown Norway rats; administered directly into the lungs; cited from earlier work"}, "[3]": {"tested_on": "LPS-induced TNFα release from human monocytes", "experiment": "LPS-stimulated TNFα release from human monocytes (ELISA)", "format": "cell-based", "protocol": "The influence of monocompounds and their various combinations, also in three-in-one on TNF secretion was investigated by using human monocytes. The study was approved by our institutional Ethics Committee according to the International Declarations of Helsinki and Tokyo.\nPeripheral blood mononuclear cells (PBMCs) were isolated from heparinized blood samples of healthy donors by density gradient centrifugation. An equal volume of Hanks buffer (Invitrogen, Heidelberg, Germany) was added to heparinized whole blood samples. […] A visible band containing PBMCs was transferred to a fresh tube and washed twice with Hanks-buffer. […] 5% CO2 overnight. Monocytes were isolated from other cells by adherence method, non-adherent cells were removed by changing the medium.\nCells were re-suspended at 10^6 cells/ml and incubated in 500 μl volumes in 24-well tissue culture plates (Falcon Becton Dickinson Labware, Heidelberg, Germany) at 37° C., 5% CO2. After pre-incubation with test substances (0.5 μl/500 μl medium) for 30 min, cells were stimulated with lipopolysaccharide (LPS) (Sigma, Deisenhofen, Germany) (1 μg/ml). After 24 h of incubation, cells were sedimented by centrifugation. The supernatants were harvested and kept frozen at −80° C. until protein determination.\nCytokine measurements in culture supernatants were done by sandwich ELISA using matched antibody pairs (BD Pharmingen, Heidelberg, Germany). ELISA plates (Maxisorb, Nunc, Wiesbaden, Germany) were coated overnight with anti-cytokine monoclonal antibody (mAb) in 0.1M carbonate buffer, pH 9.5. After being washed, plates were blocked with Assay Diluent (BD Pharmingen, Heidelberg, Germany) for 1 h and washed again. Appropriately diluted supernatant samples and standards were distributed in duplicates and the plates were incubated for 2 h at room temperature. Plates were washed, incubated for 1 h with working detector (biotinylated anti-cytokine antibody and Avidin-horseradish peroxidase conjugate) (BD Pharmingen, Heidelberg, Germany). After washing, substrate (TMB and hydrogen peroxide) was added. The reaction was stopped by adding of 1M H3PO4. Plates were read at 450 nm (reference 570 nm) in a microplate reader (Dynatech, Alexandria, USA). The results were expressed as a percentage of the control level of cytokines production by cells stimulated in the absence of the compound."}, "allergic conjunctivitis": {"tested_on": "allergic conjunctivitis", "settings": "rats, administered topically into the eyes; cited from earlier work"}, "[4]": {"settings": "mice; cited from earlier work"}, "[5]": {"tested_on": "collagen-induced arthritis", "settings": "rats; cited from earlier work"}, "[6]": {"settings": "animal experiments; completely reversed by adding scopolamine; cited from earlier work"}}, "data": [{"compound": "C[N+]1(C)CCC(OC(=O)C(O)(c2ccccc2)C2CCCC2)C1", "note": "(racemic) [glycopyrrolate, racemic glycopyrrolate]", "values": [{"measurement": "dissociation from M3 muscarinic receptors", "setting": "M3 muscarinic receptors", "value": "dissociates slowly"}, {"measurement": "selectivity in binding to the M1-M3 receptors", "setting": "M1-M3 receptors", "value": "no selectivity"}]}, {"compound": "O=C(Nc1c(Cl)cncc1Cl)C(=O)c1cn(Cc2ccc(F)cc2)c2ccc(O)cc12", "note": "[AWD 12-281]", "values": [{"measurement": "emesis", "setting": "[1]", "value": "no emesis could be induced"}, {"measurement": "ID50 for suppression of allergen-induced airway eosinophilia", "setting": "[2]", "value": 7, "unit": "µg/kg"}]}, {"compound": "C[N+]1(C)CC[C@@H](OC(=O)[C@](O)(c2ccccc2)C2CCCC2)C1.[Br-]", "note": "[R,R-glycopyrrolate]", "values": [{"measurement": "influence of the single substance on LPS-induced TNFα release", "setting": "[3]; human monocytes, LPS 1 μg/ml, 24 h, concentrations up to 10 μM", "value": "did not influence"}]}, {"compound": "COc1cc(C(=O)NS(=O)(=O)c2ccccc2C)ccc1Cc1cn(C)c2ccc(NC(=O)OC3CCCC3)cc12", "note": "[Zafirlukast, zafirlukast]", "values": [{"measurement": "development of symptoms and mediator release", "setting": "allergic conjunctivitis", "value": "effectively inhibit"}]}, {"compound": "C[C@H]1C[C@H]2[C@@H]3CCC4=CC(=O)C=C[C@]4(C)[C@@]3(Cl)[C@@H](O)C[C@]2(C)[C@@]1(O)C(=O)CO", "note": "[beclomethasone]", "values": [{"measurement": "ID50 for suppression of allergen-induced airway eosinophilia", "setting": "[2]", "value": 0.1, "unit": "µg/kg"}]}, {"compound": "CCCC1O[C@@H]2C[C@H]3[C@@H]4CCC5=CC(=O)C=C[C@]5(C)[C@H]4[C@@H](O)C[C@]3(C)[C@]2(C(=O)CO)O1", "note": "(stereo partly shown) [budesonide]", "values": [{"measurement": "IC50", "setting": "[3]; Monocyte, human monocytes, LPS 1 μg/ml, 24 h, read-out: IC50 for inhibition of TNFα release", "value": "0.55 ± 0.13", "unit": "nM"}]}, {"compound": "COc1ccc(C2CNC(=O)C2)cc1OC1CCCC1", "note": "(stereo not shown) [rolipram]", "values": [{"measurement": "physiological bone formation and bone mass", "setting": "[4]", "value": "enhance physiological bone formation and thereby increase bone mass"}, {"measurement": "clinical and histological severity of collagen-induced arthritis", "setting": "[5]", "value": "reduced the clinical and histological severity"}, {"measurement": "IC35 for inhibition of TNFα release", "setting": "[3]; IC35 determined instead of IC50 because maximum inhibition was around 70%", "value": "68.9 ± 15.2", "unit": "nM"}, {"measurement": "maximum inhibition of TNFα release", "setting": "[3]; human monocytes, LPS 1 μg/ml, 24 h", "value": "around 70%"}, {"measurement": "sedative effects (hypoactivity, decreased locomotion)", "setting": "[6]", "value": "induces sedative effects"}]}]}
